Measurements: the supplement of paper PMC11619387
In brackets after ≈: the same amount, converted by molar mass.

Tests used:
[1] = system: Pseudomonas aeruginosa PAO1-Xen41; assay: Hill coefficient of concentration-effect curve (unitless); higher = steeper concentration-effect curve
Procedure: (§1)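 Time-kill assays of bioluminescent P. aeruginosa PAO1-Xen41 (start ~5e6 CFU/mL) in 96-well plates at 37 °C, 150 rpm. Luminescence was read hourly for 20 h in cation-adjusted Mueller-Hinton broth, either non-conditioned (MH broth with or without supplements) or conditioned by one of 13 CF-associated species, then filter-sterilised and nutrient-replenished. Growth/kill rates came from log-linear regression of the exponential phase at 9-10 antibiotic concentrations, and Hill (Emax) models were fitted with drc for each replicate.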

[2] = system: Pseudomonas aeruginosa PAO1-Xen41; assay: EC50 of growth/kill rate concentration-effect curve
Procedure: as §1

[3] = system: Pseudomonas aeruginosa PAO1-Xen41; assay: Emax, maximal drug effect on net growth rate (fitted lower asymptote) (per hour (slope of log luminescence)); higher = weaker maximal killing (less negative)
Procedure: as §1

C[C@H]1[C@H](NC(=O)/C(=N\OC(C)(C)C(=O)O)c2csc(N)n2)C(=O)N1S(=O)(=O)O [aztreonam]
Settings	EC50, [2] [mg/L]	Emax, [3]	Hill coefficient, [1]
medium (conditioned by secondary species or non-conditioned control): A. baumannii	4.5 (≈ 10.3 µM)	-0.0894	6.71
medium (conditioned by secondary species or non-conditioned control): A. fumigatus	5.15 (≈ 11.8 µM)	-0.0521	5.79
medium (conditioned by secondary species or non-conditioned control): A. xylosoxidans	4.96 (≈ 11.4 µM)	-0.0816	6.69
medium (conditioned by secondary species or non-conditioned control): B. cepacia	4.4 (≈ 10.1 µM)	-0.108	7.76
medium (conditioned by secondary species or non-conditioned control): C. albicans	6.25 (≈ 14.4 µM)	-0.0614	3.57
medium (conditioned by secondary species or non-conditioned control): H. influenzae	5.7 (≈ 13.1 µM)	-0.196	1.98
medium (conditioned by secondary species or non-conditioned control): M. abcessus	4.66 (≈ 10.7 µM)	-0.0657	6.22
medium (conditioned by secondary species or non-conditioned control): M. avium	4.58 (≈ 10.5 µM)	-0.0782	6.26
medium (conditioned by secondary species or non-conditioned control): M. catarrhalis	5.07 (≈ 11.6 µM)	-0.16	4.2
medium (conditioned by secondary species or non-conditioned control): MH broth	4.48 (≈ 10.3 µM)	-0.0757	7.92
medium (conditioned by secondary species or non-conditioned control): MH broth + ADC	4.55	-0.0421	5.14
medium (conditioned by secondary species or non-conditioned control): MH broth + LHB + NAD	4.7	-0.148	3.43
medium (conditioned by secondary species or non-conditioned control): MH broth + glucose	5.04	-0.0548	4.64
medium (conditioned by secondary species or non-conditioned control): R. mannitolilytica	4.356 (≈ 10 µM)	-0.0751	7.94
medium (conditioned by secondary species or non-conditioned control): S. aureus	4.88 (≈ 11.2 µM)	-0.072	4.66
medium (conditioned by secondary species or non-conditioned control): S. maltophilia	4.32 (≈ 9.92 µM)	-0.114	3.3
medium (conditioned by secondary species or non-conditioned control): S. pneumoniae	5.6 (≈ 12.9 µM)	-0.138	3.85

CC(C)(O/N=C(\C(=O)N[C@@H]1C(=O)N2C(C(=O)[O-])=C(C[n+]3ccccc3)CS[C@H]12)c1csc(N)n1)C(=O)O [ceftazidime]
Settings	EC50, [2] [mg/L]	Emax, [3]	Hill coefficient, [1]
medium (conditioned by secondary species or non-conditioned control): A. baumannii	1.62 (≈ 2.96 µM)	-0.122	2.12
medium (conditioned by secondary species or non-conditioned control): A. fumigatus	2.05 (≈ 3.75 µM)	-0.109	3.33
medium (conditioned by secondary species or non-conditioned control): A. xylosoxidans	1.6 (≈ 2.92 µM)	-0.132	2.19
medium (conditioned by secondary species or non-conditioned control): B. cepacia	1.15 (≈ 2.11 µM)	-0.138	2.53
medium (conditioned by secondary species or non-conditioned control): C. albicans	2.02 (≈ 3.69 µM)	-0.126	3.16
medium (conditioned by secondary species or non-conditioned control): H. influenzae	1.86 (≈ 3.41 µM)	-0.223	2.268
medium (conditioned by secondary species or non-conditioned control): M. abcessus	1.17 (≈ 2.15 µM)	-0.0538	3.08
medium (conditioned by secondary species or non-conditioned control): M. avium	1.19 (≈ 2.19 µM)	-0.0876	3.59
medium (conditioned by secondary species or non-conditioned control): M. catarrhalis	1.12 (≈ 2.05 µM)	-0.166	3.76
medium (conditioned by secondary species or non-conditioned control): MH broth	1.28 (≈ 2.33 µM)	-0.0573	3
medium (conditioned by secondary species or non-conditioned control): MH broth + ADC	1.27	-0.0561	3.55
medium (conditioned by secondary species or non-conditioned control): MH broth + LHB + NAD	0.743	-0.133	5.89
medium (conditioned by secondary species or non-conditioned control): MH broth + glucose	1.71	-0.0864	2.61
medium (conditioned by secondary species or non-conditioned control): R. mannitolilytica	1.067 (≈ 1.95 µM)	-0.0734	3.02
medium (conditioned by secondary species or non-conditioned control): S. aureus	1.12 (≈ 2.05 µM)	-0.069	3.04
medium (conditioned by secondary species or non-conditioned control): S. maltophilia	0.702 (≈ 1.28 µM)	-0.139	3.32
medium (conditioned by secondary species or non-conditioned control): S. pneumoniae	1.71 (≈ 3.12 µM)	-0.159	3.31

O=C(O)c1cn(C2CC2)c2cc(N3CCNCC3)c(F)cc2c1=O [ciprofloxacin]
Settings	EC50, [2] [mg/L]	Emax, [3]	Hill coefficient, [1]
medium (conditioned by secondary species or non-conditioned control): A. baumannii	0.0737 (≈ 0.222 µM)	-0.126	4.99
medium (conditioned by secondary species or non-conditioned control): A. fumigatus	0.08478 (≈ 0.256 µM)	-0.125	6.73
medium (conditioned by secondary species or non-conditioned control): A. xylosoxidans	0.0394 (≈ 0.119 µM)	-0.0897	5.96
medium (conditioned by secondary species or non-conditioned control): B. cepacia	–	-0.0915	3.61
medium (conditioned by secondary species or non-conditioned control): C. albicans	0.08689 (≈ 0.262 µM)	-0.0975	6.2
medium (conditioned by secondary species or non-conditioned control): H. influenzae	0.0686 (≈ 0.207 µM)	-0.124	4.89
medium (conditioned by secondary species or non-conditioned control): M. abcessus	0.046 (≈ 0.139 µM)	-0.124	4.82
medium (conditioned by secondary species or non-conditioned control): M. avium	0.0646 (≈ 0.195 µM)	-0.0922	3.72
medium (conditioned by secondary species or non-conditioned control): M. catarrhalis	0.0542 (≈ 0.164 µM)	-0.0659	1.71
medium (conditioned by secondary species or non-conditioned control): MH broth	0.0844 (≈ 0.255 µM)	-0.125	6.8
medium (conditioned by secondary species or non-conditioned control): MH broth + ADC	0.0577	-0.11	3.02
medium (conditioned by secondary species or non-conditioned control): MH broth + LHB + NAD	0.0388	-0.106	4.99
medium (conditioned by secondary species or non-conditioned control): MH broth + glucose	0.0437	-0.101	5.64
medium (conditioned by secondary species or non-conditioned control): R. mannitolilytica	0.0451 (≈ 0.136 µM)	-0.0966	4.94
medium (conditioned by secondary species or non-conditioned control): S. aureus	0.0434 (≈ 0.131 µM)	-0.0957	5.13
medium (conditioned by secondary species or non-conditioned control): S. maltophilia	0.0279 (≈ 0.0843 µM)	-0.0883	3.59
medium (conditioned by secondary species or non-conditioned control): S. pneumoniae	0.0738 (≈ 0.223 µM)	-0.117	4.27

CCC(C)CCCC(=O)N[C@@H](CCN)C(=O)N[C@H](C(=O)N[C@@H](CCN)C(=O)N[C@H]1CCNC(=O)[C@H]([C@@H](C)O)NC(=O)[C@H](CCN)NC(=O)[C@H](CCN)NC(=O)[C@H](CC(C)C)NC(=O)[C@@H](CC(C)C)NC(=O)[C@H](CCN)NC1=O)[C@@H](C)O (some centres undefined) [colistin]
Settings	EC50, [2] [mg/L]	Emax, [3]	Hill coefficient, [1]
medium (conditioned by secondary species or non-conditioned control): A. baumannii	3.78 (≈ 3.27 µM)	-0.97093	5.23
medium (conditioned by secondary species or non-conditioned control): A. fumigatus	4 (≈ 3.47 µM)	-1.07	0.809
medium (conditioned by secondary species or non-conditioned control): A. xylosoxidans	3.71 (≈ 3.21 µM)	-0.971	4.77
medium (conditioned by secondary species or non-conditioned control): B. cepacia	2.64 (≈ 2.28 µM)	-1.015	1.13
medium (conditioned by secondary species or non-conditioned control): C. albicans	1.65 (≈ 1.43 µM)	-0.9963	1.39
medium (conditioned by secondary species or non-conditioned control): H. influenzae	0.634 (≈ 0.549 µM)	-0.1151	7.12
medium (conditioned by secondary species or non-conditioned control): M. abcessus	1.56 (≈ 1.35 µM)	-0.976	2.24
medium (conditioned by secondary species or non-conditioned control): M. avium	1.04 (≈ 0.899 µM)	-0.954	1.72
medium (conditioned by secondary species or non-conditioned control): M. catarrhalis	0.325 (≈ 0.282 µM)	-0.139	14.6
medium (conditioned by secondary species or non-conditioned control): MH broth	1.45 (≈ 1.26 µM)	-0.963	2.54
medium (conditioned by secondary species or non-conditioned control): MH broth + ADC	0.607	-0.901	11.8
medium (conditioned by secondary species or non-conditioned control): MH broth + LHB + NAD	0.324	-0.156	12.4
medium (conditioned by secondary species or non-conditioned control): MH broth + glucose	1.22	-0.9802	2.92
medium (conditioned by secondary species or non-conditioned control): R. mannitolilytica	1.32 (≈ 1.14 µM)	-0.958	1.77
medium (conditioned by secondary species or non-conditioned control): S. aureus	1.08 (≈ 0.939 µM)	-0.966	2.47
medium (conditioned by secondary species or non-conditioned control): S. maltophilia	3.83 (≈ 3.31 µM)	-0.97063	7.36
medium (conditioned by secondary species or non-conditioned control): S. pneumoniae	0.325 (≈ 0.281 µM)	-0.117	7.9

C[C@@H]1O[C@@H]1P(=O)(O)O [fosfomycin]
Settings	EC50, [2] [mg/L]	Emax, [3]	Hill coefficient, [1]
medium (conditioned by secondary species or non-conditioned control): A. baumannii	149 (≈ 1080 µM)	-0.132	2.21
medium (conditioned by secondary species or non-conditioned control): A. fumigatus	16.6 (≈ 120 µM)	-0.117	1.48
medium (conditioned by secondary species or non-conditioned control): A. xylosoxidans	201 (≈ 1450 µM)	-0.189	2.09
medium (conditioned by secondary species or non-conditioned control): B. cepacia	81.7 (≈ 592 µM)	-0.0776	3.68
medium (conditioned by secondary species or non-conditioned control): C. albicans	10.6 (≈ 77 µM)	-0.134	1.72
medium (conditioned by secondary species or non-conditioned control): H. influenzae	72.3 (≈ 524 µM)	-0.354	1.57
medium (conditioned by secondary species or non-conditioned control): M. abcessus	43.8 (≈ 318 µM)	-0.177	2.3
medium (conditioned by secondary species or non-conditioned control): M. avium	34.4 (≈ 249 µM)	-0.196	1.9
medium (conditioned by secondary species or non-conditioned control): M. catarrhalis	66.6 (≈ 483 µM)	-0.126	2.47
medium (conditioned by secondary species or non-conditioned control): MH broth	22.4 (≈ 163 µM)	-0.173	2.99
medium (conditioned by secondary species or non-conditioned control): MH broth + ADC	23.6	-0.194	2.25
medium (conditioned by secondary species or non-conditioned control): MH broth + LHB + NAD	47	-0.233	1.88
medium (conditioned by secondary species or non-conditioned control): MH broth + glucose	17.7	-0.136	1.47
medium (conditioned by secondary species or non-conditioned control): R. mannitolilytica	65.4 (≈ 473 µM)	-0.111	3.11
medium (conditioned by secondary species or non-conditioned control): S. aureus	47.35 (≈ 343 µM)	-0.122	3.29
medium (conditioned by secondary species or non-conditioned control): S. maltophilia	81.9 (≈ 593 µM)	-0.102	2.83
medium (conditioned by secondary species or non-conditioned control): S. pneumoniae	45.9 (≈ 332 µM)	-0.276	1.54
